Laboratory results: US6355799B1, “Substituted benzene compounds, process for their preparation, and herbicidal and defoliant compositions containing them” (ISK Americas Incorporated, priority 1997, dated 2002)

Legend:
Assay type in all cases: in vivo
[1] = test system: johnsongrass (Sorghum halepense, SORHA); experiment: Pre-emerge test, greenhouse herbicide activity screening; details: pre-emerge, rated 14 days after application, 0 = no damage, 100 = complete death
In short: (§1)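 Compounds in acetone were track-sprayed at 15-1000 g ai/ha (187 l/ha) on sandy loam pots: pre-emerge one day after seeding, post-emerge at 2-3 leaf stage with 0.25% v/v non-ionic surfactant. Phytotoxicity was rated 14 days later on a 0 (no damage) to 100 (complete death) scale.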

[2] = test system: velvetleaf (Abutilon theophrasti, ABUTH); experiment: as above; details: pre-emerge, rated 14 days after application, 0 = no damage, 100 = complete death
In short: as §1

[3] = test system: sicklepod (Cassia obtusifolia, CASOB); experiment: as above; details: pre-emerge, rated 14 days after application, 0 = no damage, 100 = complete death
In short: as §1

[4] = test system: green foxtail (Setaria viridis, SETVI); experiment: as above; details: pre-emerge, rated 14 days after application, 0 = no damage, 100 = complete death
In short: as §1

[5] = test system: large crabgrass (Digitaria sanguinalis, DIGSA); experiment: as above; details: pre-emerge, rated 14 days after application, 0 = no damage, 100 = complete death
In short: as §1

[6] = test system: barnyardgrass (Echinochloa crus-galli, ECHCG); experiment: as above; details: pre-emerge, rated 14 days after application, 0 = no damage, 100 = complete death
In short: as §1

[7] = test system: lambsquarters (Chenopodium album, CHEAL); experiment: as above; details: pre-emerge, rated 14 days after application, 0 = no damage, 100 = complete death
In short: as §1

[8] = test system: ivyleaf morningglory (Ipomoea hederacea, IPOHE); experiment: as above; details: pre-emerge, rated 14 days after application, 0 = no damage, 100 = complete death
In short: as §1

[9] = test system: field corn (Zea mays L., var. Dekalb 535, CORN); experiment: Pre-emerge test, crop safety; details: pre-emerge, rated 14 days after application, 0 = no damage, 100 = complete death
In short: (§2)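 Sandy loam pots; pre-emerge: sown 1 d pre-spray, surface-watered after, then bottom-watered. Post-emerge: sown 8–21 d before, 2–3 leaf stage, + 0.25% v/v NIS, bottom-watered. Acetone, 187 l/ha track spray, 15–1000 g ai/ha. 0–100 injury score, day 14.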

[10] = test system: upland rice (Oryza sp., var. Tebonnet, RICE); experiment: Pre-emerge test, crop safety; details: pre-emerge, rated 14 days after application, 0 = no damage, 100 = complete death
In short: as §2

[11] = test system: johnsongrass (Sorghum halepense, SORHA); experiment: Post-emerge test, greenhouse herbicide activity screening; details: phytotoxicity rating 0-100 (0 no damage, 100 complete death), 14 days after application
In short: (§3)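 Rating: 0–100 visual injury, 14 DAA. Application: acetone, 187 l/ha, 15–1000 g ai/ha, flat-fan track sprayer with nozzle 40–45 cm above soil or canopy. Post-emerge runs used 0.25% v/v surfactant on 2–3 leaf plants.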

[12] = test system: velvetleaf (Abutilon theophrasti, ABUTH); experiment: as above; details: phytotoxicity rating 0-100 (0 no damage, 100 complete death), 14 days after application
In short: as §3

[13] = test system: sicklepod (Cassia obtusifolia, CASOB); experiment: as above; details: phytotoxicity rating 0-100 (0 no damage, 100 complete death), 14 days after application
In short: as §3

[14] = test system: green foxtail (Setaria viridis, SETVI); experiment: as above; details: phytotoxicity rating 0-100 (0 no damage, 100 complete death), 14 days after application
In short: as §3

[15] = test system: redroot pigweed (Amaranthus retroflexus, AMARE); experiment: as above; details: phytotoxicity rating 0-100 (0 no damage, 100 complete death), 14 days after application
In short: as §3

[16] = test system: large crabgrass (Digitaria sanguinalis, DIGSA); experiment: as above; details: phytotoxicity rating 0-100 (0 no damage, 100 complete death), 14 days after application
In short: as §3

[17] = test system: barnyardgrass (Echinochloa crus-galli, ECHCG); experiment: as above; details: phytotoxicity rating 0-100 (0 no damage, 100 complete death), 14 days after application
In short: as §3

[18] = test system: lambsquarters (Chenopodium album, CHEAL); experiment: as above; details: phytotoxicity rating 0-100 (0 no damage, 100 complete death), 14 days after application
In short: as §3

[19] = test system: ivyleaf morningglory (Ipomoea hederacea, IPOHE); experiment: as above; details: phytotoxicity rating 0-100 (0 no damage, 100 complete death), 14 days after application
In short: as §3

[20] = test system: field corn (Zea mays L., var. Dekalb 535, CORN); experiment: Post-emerge test, crop safety; details: phytotoxicity rating 0-100 (0 no damage, 100 complete death), 14 days after application
In short: as §1

[21] = test system: upland rice (Oryza sp., var. Tebonnet, RICE); experiment: Post-emerge test, crop safety; details: phytotoxicity rating 0-100 (0 no damage, 100 complete death), 14 days after application
In short: as §1

[22] = test system: redroot pigweed (Amaranthus retroflexus, AMARE); experiment: Pre-emerge test, greenhouse herbicide activity screening; details: pre-emerge, rated 14 days after application, 0 = no damage, 100 = complete death
In short: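 Compounds in acetone were track-sprayed at 187 l/ha, 15–1000 g ai/ha, onto sandy loam pots. Pre-emerge seeds were sown one day before spraying, with surface watering afterwards. Post-emerge plants were at the 2–3 leaf stage and sprayed with 0.25% v/v non-ionic surfactant. Injury was rated 0–100 at 14 days.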

In the case of C=C(C)C(=O)N(C(=O)C(=C)C)c1c(OC)c(Cl)cc(F)c1-n1c(=O)cc(C(F)(F)F)n(C)c1=O [2-6], the “Pre-emerge Herbicidal Activity SORHA (phytotoxicity rating, scale 0-100)” value ([1]; 63 g ai/ha) is reported as 0, the “Pre-emerge Herbicidal Activity SORHA (phytotoxicity rating, scale 0-100)” value ([1]; 250 g ai/ha) is reported as 20 and the “Pre-emerge Herbicidal Activity ABUTH (phytotoxicity rating, scale 0-100)” value ([2]; 63 g ai/ha) is reported as 0. The “Pre-emerge Herbicidal Activity ABUTH (phytotoxicity rating, scale 0-100)” value ([2]; 250 g ai/ha) was 0, the “Pre-emerge Herbicidal Activity CASOB (phytotoxicity rating, scale 0-100)” value ([3]; 63 g ai/ha) was 0 and the “Pre-emerge Herbicidal Activity CASOB (phytotoxicity rating, scale 0-100)” value ([3]; 250 g ai/ha) was 0. The “Pre-emerge Herbicidal Activity SETVI (phytotoxicity rating, scale 0-100)” value ([4]; 63 g ai/ha) was 0, the “Pre-emerge Herbicidal Activity SETVI (phytotoxicity rating, scale 0-100)” value ([4]; 250 g ai/ha) was 80 and the “Pre-emerge Herbicidal Activity DIGSA (phytotoxicity rating, scale 0-100)” value ([5]; 63 g ai/ha) was 0. The “Pre-emerge Herbicidal Activity DIGSA (phytotoxicity rating, scale 0-100)” value ([5]; 250 g ai/ha) was 10, the “Pre-emerge Herbicidal Activity ECHCG (phytotoxicity rating, scale 0-100)” value ([6]; 63 g ai/ha) was 0 and the “Pre-emerge Herbicidal Activity ECHCG (phytotoxicity rating, scale 0-100)” value ([6]; 250 g ai/ha) was 0. For the same compound, the “Pre-emerge Herbicidal Activity CHEAL (phytotoxicity rating, scale 0-100)” value ([7]; 63 g ai/ha) was 0, the “Pre-emerge Herbicidal Activity CHEAL (phytotoxicity rating, scale 0-100)” value ([7]; 250 g ai/ha) was 0 and the “Pre-emerge Herbicidal Activity IPOHE (phytotoxicity rating, scale 0-100)” value ([8]; 63 g ai/ha) was 0. For the same compound, the “Pre-emerge Herbicidal Activity IPOHE (phytotoxicity rating, scale 0-100)” value ([8]; 250 g ai/ha) was 0, the “Pre-emerge crop damage CORN (phytotoxicity rating, scale 0-100)” value ([9]; 63 g ai/ha) was 0 and the “Pre-emerge crop damage CORN (phytotoxicity rating, scale 0-100)” value ([9]; 250 g ai/ha) was 0. For the same compound, the “Pre-emerge crop damage RICE (phytotoxicity rating, scale 0-100)” value ([10]; 63 g ai/ha) was 0, the “Pre-emerge crop damage RICE (phytotoxicity rating, scale 0-100)” value ([10]; 250 g ai/ha) was 0 and the “Post-emerge Herbicidal Activity SORHA” value ([11]; 63 g ai/ha) was 0. The “Post-emerge Herbicidal Activity SORHA” value ([11]; 250 g ai/ha) was 0, the “Post-emerge Herbicidal Activity ABUTH” value ([12]; 63 g ai/ha) was 0 and the “Post-emerge Herbicidal Activity ABUTH” value ([12]; 250 g ai/ha) was 70. The “Post-emerge Herbicidal Activity CASOB” value ([13]; 63 g ai/ha) was 0, the “Post-emerge Herbicidal Activity CASOB” value ([13]; 250 g ai/ha) was 0 and the “Post-emerge Herbicidal Activity SETVI” value ([14]; 63 g ai/ha) was 0. The “Post-emerge Herbicidal Activity SETVI” value ([14]; 250 g ai/ha) was 0, the “Post-emerge Herbicidal Activity AMARE” value ([15]; 63 g ai/ha) was 0 and the “Post-emerge Herbicidal Activity AMARE” value ([15]; 250 g ai/ha) was 10. For the same compound, the “Post-emerge Herbicidal Activity DIGSA” value ([16]; 63 g ai/ha) was 0, the “Post-emerge Herbicidal Activity DIGSA” value ([16]; 250 g ai/ha) was 0 and the “Post-emerge Herbicidal Activity ECHCG” value ([17]; 63 g ai/ha) was 0. The “Post-emerge Herbicidal Activity ECHCG” value ([17]; 250 g ai/ha) was 0, the “Post-emerge Herbicidal Activity CHEAL” value ([18]; 63 g ai/ha) was 0 and the “Post-emerge Herbicidal Activity CHEAL” value ([18]; 250 g ai/ha) was 30. For the same compound, the “Post-emerge Herbicidal Activity IPOHE” value ([19]; 63 g ai/ha) was 0, the “Post-emerge Herbicidal Activity IPOHE” value ([19]; 250 g ai/ha) was 30 and the “Post-emerge Herbicidal Activity CORN (crop damage)” value ([20]; 63 g ai/ha) was 0. For the same compound, the “Post-emerge Herbicidal Activity CORN (crop damage)” value ([20]; 250 g ai/ha) was 5, the “Post-emerge Herbicidal Activity RICE (crop damage)” value ([21]; 63 g ai/ha) was 0 and the “Post-emerge Herbicidal Activity RICE (crop damage)” value ([21]; 250 g ai/ha) was 0. For the same compound, the “Pre-emerge Herbicidal Activity AMARE (phytotoxicity rating, scale 0-100)” value ([22]; 63 g ai/ha) was 0 and the “Pre-emerge Herbicidal Activity AMARE (phytotoxicity rating, scale 0-100)” value ([22]; 250 g ai/ha) was 50.
